Laboratory results published in ChEMBL document CHEMBL1201862, “PubChem BioAssay data set” (2004).
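Compound exposure: 48 hours, 5 concentrations, 96-well plates. GI50: concentration for 50% inhibition of growth.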 The source made the active and inactive calls. Cut-off read from the data, not from the text of the source: active = GI50 up to about 1.1 µM and inactive = higher.

Key:
Test in all cases: DTP human tumour cell line panel, 48 h
KM12 = test system: KM12
TK-10 = test system: TK-10
SNB-75 = test system: SNB-75
HCC 2998 = test system: HCC 2998
CCRF-CEM = test system: CCRF-CEM
SK-MEL-28 = test system: SK-MEL-28
SK-MEL-2 = test system: SK-MEL-2
UO-31 = test system: UO-31
SF-295 = test system: SF-295
HOP-92 = test system: HOP-92
SF-268 = test system: SF-268
OVCAR-3 = test system: OVCAR-3
SNB-19 = test system: SNB-19
M14 = test system: M14
MOLT-4 = test system: MOLT-4
786-0 = test system: 786-0
NCI-H226 = test system: NCI-H226

| SMILES | GI50 (KM12) | GI50 (TK-10) | GI50 (SNB-75) | GI50 (HCC 2998) | GI50 (CCRF-CEM) | GI50 (SK-MEL-28) | GI50 (SK-MEL-2) | GI50 (UO-31) | GI50 (SF-295) | GI50 (HOP-92) | GI50 (SF-268) | GI50 (OVCAR-3) | GI50 (SNB-19) | GI50 (M14) | GI50 (MOLT-4) | GI50 (786-0) | GI50 (NCI-H226) |
| --- | --- | --- | --- | --- | --- | --- | --- | --- | --- | --- | --- | --- | --- | --- | --- | --- | --- |
| CCOC(=O)C1C(=S)NC(=O)C1C#N (configuration not stated) | > 100 µM (inactive) | > 100 µM (inactive) | > 100 µM (inactive) | > 100 µM (inactive) | > 100 µM (inactive) | > 100 µM (inactive) | > 100 µM (inactive) | > 100 µM (inactive) | > 100 µM (inactive) | > 100 µM (inactive) | > 100 µM (inactive) | > 100 µM (inactive) | > 100 µM (inactive) | > 100 µM (inactive) | > 100 µM (inactive) | > 100 µM (inactive) | – |
| CNCCCCN(C)/[N+]([O-])=N\O | > 100 µM (inactive) | – | 49.2 µM (inactive) | > 100 µM (inactive) | > 100 µM (inactive) | > 100 µM (inactive) | > 100 µM (inactive) | > 100 µM (inactive) | > 100 µM (inactive) | > 100 µM (inactive) | > 100 µM (inactive) | > 100 µM (inactive) | > 100 µM (inactive) | > 100 µM (inactive) | > 100 µM (inactive) | > 100 µM (inactive) | > 100 µM (inactive) |
| O=C(c1c(O)cc(O)cc1O)C1Cc2ccccc21 (configuration not stated) | > 100 µM (inactive) | > 100 µM (inactive) | 13.4 µM (inactive) | > 100 µM (inactive) | > 100 µM (inactive) | – | > 100 µM (inactive) | 58.3 µM (inactive) | 42.3 µM (inactive) | 19.1 µM (inactive) | 53.1 µM (inactive) | – | 64 µM (inactive) | > 100 µM (inactive) | > 100 µM (inactive) | 31.8 µM (inactive) | > 100 µM (inactive) |
| COc1nc(NC2OC(COC(C)=O)C(OC(C)=O)C(OC(C)=O)C2OC(C)=O)c(/N=C(\C)C(C)=O)c(=O)n1C (configuration not stated) | > 100 µM (inactive) | > 100 µM (inactive) | > 100 µM (inactive) | > 100 µM (inactive) | > 100 µM (inactive) | – | > 100 µM (inactive) | > 100 µM (inactive) | > 100 µM (inactive) | > 100 µM (inactive) | – | > 100 µM (inactive) | > 100 µM (inactive) | > 100 µM (inactive) | > 100 µM (inactive) | > 100 µM (inactive) | > 100 µM (inactive) |
| Fc1ccccc1C1SCc2nc3ccccc3n21 (configuration not stated) | 89.9 µM (inactive) | > 100 µM (inactive) | 72.8 µM (inactive) | 75.2 µM (inactive) | 43.1 µM (inactive) | > 100 µM (inactive) | 76.4 µM (inactive) | 24.8 µM (inactive) | 41.8 µM (inactive) | 19.7 µM (inactive) | 69.8 µM (inactive) | 38.4 µM (inactive) | 86.7 µM (inactive) | – | 30.4 µM (inactive) | > 100 µM (inactive) | 76.7 µM (inactive) |
| O=C1CCC2(c3ccc(Cl)cc3)Nc3ncccc3N12 (configuration not stated) | > 100 µM (inactive) | > 100 µM (inactive) | 79.8 µM (inactive) | > 100 µM (inactive) | > 100 µM (inactive) | > 100 µM (inactive) | > 100 µM (inactive) | > 100 µM (inactive) | > 100 µM (inactive) | > 100 µM (inactive) | > 100 µM (inactive) | > 100 µM (inactive) | – | > 100 µM (inactive) | > 100 µM (inactive) | > 100 µM (inactive) | > 100 µM (inactive) |
| CC(C)(c1cn(Cc2ccccc2)c2ccccc12)c1cn(Cc2ccccc2)c2ccccc12 | > 100 µM (inactive) | – | 17.3 µM (inactive) | – | > 100 µM (inactive) | – | – | – | > 100 µM (inactive) | 32.2 µM (inactive) | > 100 µM (inactive) | > 100 µM (inactive) | – | > 100 µM (inactive) | > 100 µM (inactive) | > 100 µM (inactive) | 51.3 µM (inactive) |
| O=C(Cc1nc2ccccc2s1)Nc1ccc(Cl)cc1 | 78.5 µM (inactive) | > 100 µM (inactive) | 91.6 µM (inactive) | > 100 µM (inactive) | > 100 µM (inactive) | > 100 µM (inactive) | 88.9 µM (inactive) | > 100 µM (inactive) | 55.6 µM (inactive) | – | > 100 µM (inactive) | > 100 µM (inactive) | > 100 µM (inactive) | 77.1 µM (inactive) | > 100 µM (inactive) | > 100 µM (inactive) | > 100 µM (inactive) |
| CC(C)(C)OC1=C(OC(C)(C)C)C(O)(c2ccccc2)C1=O (configuration not stated) | > 100 µM (inactive) | > 100 µM (inactive) | > 100 µM (inactive) | > 100 µM (inactive) | > 100 µM (inactive) | > 100 µM (inactive) | – | > 100 µM (inactive) | > 100 µM (inactive) | – | > 100 µM (inactive) | > 100 µM (inactive) | > 100 µM (inactive) | > 100 µM (inactive) | > 100 µM (inactive) | > 100 µM (inactive) | – |
| COC(=O)C1=C(C(=O)OC)C2(C3C(SC)=CC(C)(C)CC3S1)N(Cc1ccccc1)CCN2Cc1ccccc1 (configuration not stated) | > 100 µM (inactive) | > 100 µM (inactive) | > 100 µM (inactive) | – | > 100 µM (inactive) | > 100 µM (inactive) | > 100 µM (inactive) | > 100 µM (inactive) | > 100 µM (inactive) | < 0.01 µM (active) | > 100 µM (inactive) | > 100 µM (inactive) | > 100 µM (inactive) | > 100 µM (inactive) | > 100 µM (inactive) | > 100 µM (inactive) | > 100 µM (inactive) |
| CCN(CC)CCCC(C)Nc1c(Sc2cnc3cc(Cl)ccc3c2NC(C)CCCN(CC)CC)cnc2cc(Cl)ccc12 (configuration not stated) | 2.07 µM (inactive) | 1.79 µM (inactive) | 1.51 µM (inactive) | 0.269 µM (active) | 2.2 µM (inactive) | 1.86 µM (inactive) | 1.85 µM (inactive) | 21.1 µM (inactive) | – | 1.96 µM (inactive) | 2.02 µM (inactive) | 1.9 µM (inactive) | – | 1.81 µM (inactive) | 2.37 µM (inactive) | 1.54 µM (inactive) | 1.76 µM (inactive) |
| Cc1ccc(S(=O)(=O)C(CC(=O)N2CCCC2)C(=O)c2ccccc2)cc1 (configuration not stated) | > 100 µM (inactive) | > 100 µM (inactive) | 80.2 µM (inactive) | > 100 µM (inactive) | 24.6 µM (inactive) | > 100 µM (inactive) | – | > 100 µM (inactive) | > 100 µM (inactive) | > 100 µM (inactive) | 83.4 µM (inactive) | > 100 µM (inactive) | > 100 µM (inactive) | > 100 µM (inactive) | 25.6 µM (inactive) | > 100 µM (inactive) | – |
| N#COc1ccc(Oc2ccccc2)cc1 | > 100 µM (inactive) | > 100 µM (inactive) | 39.8 µM (inactive) | 55.5 µM (inactive) | 24.5 µM (inactive) | > 100 µM (inactive) | 74.3 µM (inactive) | 50.9 µM (inactive) | 59.8 µM (inactive) | 43.8 µM (inactive) | 75.2 µM (inactive) | > 100 µM (inactive) | > 100 µM (inactive) | 58.7 µM (inactive) | 42.9 µM (inactive) | 34.6 µM (inactive) | > 100 µM (inactive) |
| CC(=O)OC1(C#N)CC2OC1C1C2N1C(=O)OC(C)(C)C (configuration not stated) | – | > 100 µM (inactive) | > 100 µM (inactive) | > 100 µM (inactive) | > 100 µM (inactive) | > 100 µM (inactive) | > 100 µM (inactive) | > 100 µM (inactive) | – | > 100 µM (inactive) | > 100 µM (inactive) | – | > 100 µM (inactive) | > 100 µM (inactive) | > 100 µM (inactive) | > 100 µM (inactive) | > 100 µM (inactive) |
| Nc1ncnc2sc(Nc3ccccc3)nc12 | > 100 µM (inactive) | 46.9 µM (inactive) | 29.6 µM (inactive) | > 100 µM (inactive) | – | > 100 µM (inactive) | > 100 µM (inactive) | 45.8 µM (inactive) | > 100 µM (inactive) | 77.1 µM (inactive) | > 100 µM (inactive) | > 100 µM (inactive) | > 100 µM (inactive) | 92 µM (inactive) | > 100 µM (inactive) | 26.5 µM (inactive) | > 100 µM (inactive) |
| CC(SC(=O)Nc1ccc(/N=N/c2ccccc2)cc1)C(=O)O (configuration not stated) | 54.3 µM (inactive) | 58.1 µM (inactive) | 6.4 µM (inactive) | > 100 µM (inactive) | 36 µM (inactive) | > 100 µM (inactive) | > 100 µM (inactive) | 68.7 µM (inactive) | 56.4 µM (inactive) | – | 17.3 µM (inactive) | > 100 µM (inactive) | > 100 µM (inactive) | > 100 µM (inactive) | 34 µM (inactive) | 79.8 µM (inactive) | > 100 µM (inactive) |
| CC1CCC2CC(=O)OC([C@@H]3C(=O)O[C@@H](C4=CCCC4)C4C(C)CCC43)C12 (some centres not stated) | 42 µM (inactive) | 54.5 µM (inactive) | > 100 µM (inactive) | > 100 µM (inactive) | 34.8 µM (inactive) | > 100 µM (inactive) | > 100 µM (inactive) | > 100 µM (inactive) | 79.1 µM (inactive) | – | > 100 µM (inactive) | 73.1 µM (inactive) | > 100 µM (inactive) | > 100 µM (inactive) | 36.2 µM (inactive) | > 100 µM (inactive) | > 100 µM (inactive) |
| Cc1c2cc[n+](C)cc2c(C)c2c1[nH]c1ccc(OCC(F)(F)F)cc12 | 2.53 µM (inactive) | – | – | 5.05 µM (inactive) | 4.16 µM (inactive) | – | 3.4 µM (inactive) | – | 0.327 µM (active) | 2.43 µM (inactive) | 0.376 µM (active) | 2.59 µM (inactive) | 0.817 µM (active) | – | 2.61 µM (inactive) | 0.378 µM (active) | 0.499 µM (active) |
